This is an account of results in patent US8916716B2, “Process for the preparation of crystalline form II of L-malic acid salt of sunitinib” (Ranbaxy Laboratories Limited, priority 2009, dated 2014).

Data set [1] is described as follows: Solid form stability on storage, followed by XRPD. The data set is classed as physicochemical. The conditions noted are these: storage for about 20 days or more. How it is done:
The XRPD of the samples were determined by using Panalytical X'Pert Pro X-Ray Powder Diffractometer in the range 3-40 degree 2 theta and under tube voltage and current of 45 Kv and 40 mA respectively. Copper radiation of wavelength 1.54 angstrom and Xceletor detector was used.
The solvent was evaporated at a temperature of about 60° C. to about 65° C. through spray drying.

Data set [2] can be described thus: Moisture content by KF, initial and after storage. The data set is classed as physicochemical.
For data set [3] the following is noted: described in WO 2009/104021; cited from earlier work.

On to `CCN(CC)CCNC(=O)c1c(C)[nH]c(/C=C2\C(=O)Nc3ccc(F)cc32)c1C` [Example 1, butanedioic acid, hydroxy-, (2S)—, compound with N-[2-(diethylamino)ethyl]-5-[(Z)-(5-fluoro-1,2-dihydro-2-oxo-3H-indol-3-ylidine)methyl]-2,4-dimethyl-1H-pyrrole-3-carboxamide (1:1)], for which, in data set [1], the “conversion into any other solid form on storage” value is “does not convert into any other solid form”. The “Moisture content by KF” value in data set [2] (after storage at 20° C. to 25° C. for 60 days) was 5.52%; in data set [2] (initial), 4.48%. Also, the “moisture absorbed (level)” value in data set [2] (general statement on the stable Form II) is listed as “not more than 2%”.

In the case of `CCN(CC)CCNC(=O)c1c(C)[nH]c(/C=C2\C(=O)Nc3ccc(F)cc32)c1C` [Form II of sunitinib L-malate, butanedioic acid, hydroxy-, (2S)—, compound with N-[2-(diethylamino)ethyl]-5-[(Z)-(5-fluoro-1,2-dihydro-2-oxo-3H-indol-3-ylidine)methyl]-2,4-dimethyl-1H-pyrrole-3-carboxamide (1:1)], in data set [3], the “conversion to another crystal form” value is reported as “appears to readily convert to Form I”, the hygroscopicity entry is “hygroscopic” and the thermodynamic stability result is “thermodynamically unstable”.
